Activity calls are given as the source filed them. The rule behind the calls is not given here.
Tests used:
HepG2 [1] = experiment: Effect on LDLR mRNA expression level in human HepG2 cells at 1 uM by RT-qPCR analysis; assay type: functional, cell-based
Liver X receptor [2] = molecular target: T1, Liver X receptor (Homo sapiens, UniProt Q13133+P55055); experiment: Agonist activity at LXR in human HepG2 cells assessed as increase in cellular lipid content at 1 uM measured after 72 hrs by Oil Red O staining based assay; assay type: toxicity, cell-based; settings: hepg2, 72 h
T1 sequence (Q13133 whole entry): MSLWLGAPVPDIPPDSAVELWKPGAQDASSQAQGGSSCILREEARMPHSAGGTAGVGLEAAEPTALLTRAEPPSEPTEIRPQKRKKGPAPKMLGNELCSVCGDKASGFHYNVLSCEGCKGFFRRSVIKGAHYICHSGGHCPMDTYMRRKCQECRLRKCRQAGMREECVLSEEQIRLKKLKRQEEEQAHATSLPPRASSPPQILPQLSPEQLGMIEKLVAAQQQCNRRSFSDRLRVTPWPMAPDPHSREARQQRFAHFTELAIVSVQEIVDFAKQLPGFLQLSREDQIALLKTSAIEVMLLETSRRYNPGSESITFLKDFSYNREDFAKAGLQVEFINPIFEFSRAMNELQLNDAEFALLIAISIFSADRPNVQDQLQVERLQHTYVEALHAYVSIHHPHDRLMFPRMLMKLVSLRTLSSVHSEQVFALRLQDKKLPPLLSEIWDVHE
T1 sequence (P55055 whole entry): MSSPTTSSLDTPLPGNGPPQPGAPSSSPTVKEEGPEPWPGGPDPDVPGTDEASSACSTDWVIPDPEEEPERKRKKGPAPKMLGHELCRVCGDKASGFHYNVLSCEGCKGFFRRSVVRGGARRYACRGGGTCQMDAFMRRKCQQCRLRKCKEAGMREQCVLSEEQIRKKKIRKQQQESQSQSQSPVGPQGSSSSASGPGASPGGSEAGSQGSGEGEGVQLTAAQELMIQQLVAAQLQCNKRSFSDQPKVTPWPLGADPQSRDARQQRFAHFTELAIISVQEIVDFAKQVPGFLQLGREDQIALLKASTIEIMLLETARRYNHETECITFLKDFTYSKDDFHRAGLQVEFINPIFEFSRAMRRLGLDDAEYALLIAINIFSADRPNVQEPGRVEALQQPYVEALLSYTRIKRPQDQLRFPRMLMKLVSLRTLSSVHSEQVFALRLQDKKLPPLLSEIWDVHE

HepG2 [3] = experiment: Effect on LDLR mRNA expression level in human HepG2 cells at 5 uM by RT-qPCR analysis; assay type: functional, cell-based
[4] = molecular target: T2, Oxysterols receptor LXR-alpha (Homo sapiens, UniProt Q13133); experiment: Agonist activity at full length human LXRalpha transfected in HEK293T cells co-expressing ABCA1 assessed as increase in luciferase activity measured after 18 hrs by reporter gene assay; assay type: cell-based
T2 sequence (Q13133 whole entry): T1 sequence (Q13133 whole entry)

[5] = molecular target: T3, Oxysterols receptor LXR-beta (Homo sapiens, UniProt P55055); experiment: Agonist activity at full length human LXRbeta transfected in HEK293T cells co-expressing ABCA1 assessed as increase in luciferase activity measured after 18 hrs by luciferase reporter gene assay; assay type: cell-based
T3 sequence (P55055 whole entry): T1 sequence (P55055 whole entry)

Liver X receptor [6] = molecular target: T1, Liver X receptor; experiment: Agonist activity at LXR in human HepG2 cells assessed as reduction in SREBP1c proteolytic processing upto 10 uM measured after 72 hrs by Western blot analysis; assay type: toxicity, cell-based; settings: hepg2, 72 h
Liver X receptor [7] = molecular target: T1, Liver X receptor; experiment: Agonist activity at LXR in human HepG2 cells assessed as reduction in HMGCR mRNA expression upto 10 uM measured after 72 hrs by RT-qPCR analysis; assay type: toxicity, cell-based; settings: hepg2, 72 h
[8] = molecular target: T4, Liver X receptor (Homo sapiens) (UniProt Q13133+P55055); experiment: Agonist activity at LXR in human THP-1 cells assessed as increase of ABCA1 protein expression level at 1 to 10 uM by Western blot analysis; assay type: cell-based; settings: filed as agonist, dose 1-10 µM
HepG2 [9] = experiment: Effect on LDLR mRNA expression level in human HepG2 cells at 1 to 10 uM by RT-qPCR analysis; assay type: functional, cell-based; settings: dose 1-10 µM
Liver X receptor [10] = molecular target: T1, Liver X receptor; experiment: Agonist activity at LXR in human HepG2 cells assessed as increase in SREBF1 mRNA expression level at 1 to 10 uM measured after 72 hrs by RT-qPCR analysis; assay type: toxicity, cell-based; settings: hepg2, 72 h, dose 1-10 µM
Liver X receptor [11] = molecular target: T1, Liver X receptor; experiment: Agonist activity at LXR in human HepG2 cells assessed as increase in SREBF1 protein expression level at 1 to 10 uM measured after 72 hrs by Western blot analysis; assay type: toxicity, cell-based; settings: hepg2, 72 h, dose 1-10 µM
[12] = molecular target: T4, Liver X receptor (Homo sapiens); experiment: Agonist activity at LXR in human THP-1 cells assessed as increase of ABCG1 mRNA expression level at 1 to 10 uM by RT-qPCR analysis; assay type: cell-based; settings: filed as agonist, dose 1-10 µM
[13] = molecular target: T5, Oxysterols receptor LXR-alpha (Homo sapiens) (UniProt Q13133); experiment: Agonist activity at human LXRalpha-LBD transfected in HEK293T cells co-expressing Gal4-DBD assessed as increase in luciferase activity measured after 18 hrs by reporter gene assay; assay type: cell-based; settings: filed as agonist, dose 1-10 µM
T5 sequence (whole entry): T1 sequence (Q13133 whole entry)

[14] = molecular target: T6, Oxysterols receptor LXR-beta (Homo sapiens) (UniProt P55055); experiment: Agonist activity at human LXRbeta-LBD transfected in HEK293T cells co-expressing Gal4-DBD assessed as increase in luciferase activity measured after 18 hrs by reporter gene assay; assay type: cell-based; settings: filed as agonist, dose 1-10 µM
T6 sequence (whole entry): T1 sequence (P55055 whole entry)

HEK-293T = experiment: Cytotoxicity against HEK293T cells transfected with LXRalpha assessed as cell viability at >10 uM measured after 18 hrs by luciferase reporter gene assay; assay type: toxicity, cell-based; settings: human
Homo sapiens = species: Homo sapiens; experiment: Activation at RXR (unknown origin)
[15] = molecular target: T7, Bile acid receptor (Homo sapiens) (UniProt Q96RI1); experiment: Activation at FXR (unknown origin)
T7 sequence (whole entry): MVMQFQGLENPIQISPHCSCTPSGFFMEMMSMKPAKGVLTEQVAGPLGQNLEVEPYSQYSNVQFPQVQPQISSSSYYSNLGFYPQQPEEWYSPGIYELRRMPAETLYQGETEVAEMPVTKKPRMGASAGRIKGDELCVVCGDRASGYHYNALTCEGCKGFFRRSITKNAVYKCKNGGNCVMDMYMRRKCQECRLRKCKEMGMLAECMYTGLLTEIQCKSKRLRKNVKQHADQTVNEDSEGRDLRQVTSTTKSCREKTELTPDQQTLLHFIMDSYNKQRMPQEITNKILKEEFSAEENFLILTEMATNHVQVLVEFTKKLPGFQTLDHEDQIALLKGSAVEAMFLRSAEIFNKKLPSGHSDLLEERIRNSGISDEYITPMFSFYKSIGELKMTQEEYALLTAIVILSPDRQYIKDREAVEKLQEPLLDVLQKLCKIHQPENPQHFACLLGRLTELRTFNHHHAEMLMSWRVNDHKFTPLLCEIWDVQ

[16] = molecular target: T8, Nuclear receptor ROR-gamma (Homo sapiens) (UniProt P51449); experiment: Activation at RORgamma (unknown origin)
T8 sequence (whole entry): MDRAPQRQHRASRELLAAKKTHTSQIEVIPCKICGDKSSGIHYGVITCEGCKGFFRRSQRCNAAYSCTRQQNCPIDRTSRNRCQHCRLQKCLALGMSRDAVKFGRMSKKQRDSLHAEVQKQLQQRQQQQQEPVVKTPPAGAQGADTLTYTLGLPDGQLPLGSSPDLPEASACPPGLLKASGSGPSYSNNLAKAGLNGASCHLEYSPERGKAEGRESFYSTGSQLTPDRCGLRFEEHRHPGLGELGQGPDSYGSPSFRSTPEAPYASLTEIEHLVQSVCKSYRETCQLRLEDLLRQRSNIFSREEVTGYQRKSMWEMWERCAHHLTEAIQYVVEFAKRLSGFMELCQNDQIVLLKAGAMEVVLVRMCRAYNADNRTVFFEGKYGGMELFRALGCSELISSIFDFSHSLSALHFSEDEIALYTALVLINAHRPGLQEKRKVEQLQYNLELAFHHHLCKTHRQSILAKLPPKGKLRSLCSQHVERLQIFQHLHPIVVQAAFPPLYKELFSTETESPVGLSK

[17] = molecular target: T4, Liver X receptor (Homo sapiens); experiment: Agonist activity at LXR in cholesterol treated human THP-1 cells assessed as stimulation of plasma mediated cholesterol efflux pre incubated for 24 hrs followed by plasma addition measured after 6 hrs by liquid scintillation counting analysis; assay type: cell-based; settings: filed as agonist, dose 1-10 µM, time 30.0 hrs
[18] = molecular target: T4, Liver X receptor (Homo sapiens); experiment: Agonist activity at LXR in human THP-1 cells assessed as increase of ABCA1 mRNA expression level at 1 to 10 uM by RT-qPCR analysis; assay type: cell-based; settings: filed as agonist, dose 1-10 µM
[19] = molecular target: T4, Liver X receptor (Homo sapiens); experiment: Agonist activity at LXR in cholesterol treated human THP-1 cells assessed as stimulation of plasma mediated cholesterol efflux at 5 uM pre incubated for 24 hrs followed by plasma addition measured after 6 hrs by liquid scintillation counting analysis; assay type: cell-based; settings: filed as agonist
[20] = molecular target: T4, Liver X receptor (Homo sapiens); experiment: Agonist activity at LXR in human HepG2 cells assessed as increase of IDOL mRNA expression level at 10 uM by RT-qPCR analysis; assay type: cell-based; settings: filed as agonist
Liver X receptor [21] = molecular target: T1, Liver X receptor; experiment: Agonist activity at LXR in human HepG2 cells assessed as reduction in SREBP1c proteolytic processing measured after 72 hrs by Western blot analysis; assay type: toxicity, cell-based; settings: hepg2, 72 h, dose 1-10 µM
Liver X receptor [22] = molecular target: T1, Liver X receptor; experiment: Agonist activity at LXR in human HepG2 cells assessed as reduction in HMGCR mRNA expression measured after 72 hrs by RT-qPCR analysis; assay type: toxicity, cell-based; settings: hepg2, 72 h, dose 1-10 µM

O=C(O)Cc1cccc(OCCCN(Cc2cccc(C(F)(F)F)c2Cl)CC(c2ccccc2)c2ccccc2)c1
Activity (HepG2 [1]): inactive | Activity (Liver X receptor [2]): Toxic

CC(C)CC[C@@H](O)[C@@H](C)[C@H]1CC[C@H]2[C@@H]3CC=C4C[C@@H](O)CC[C@]4(C)[C@H]3CC[C@]12C [22(R)-HYDROXYCHOLESTEROL]
Activity (HepG2 [3]): inactive | EC50 [4]: 1200 nM | EC50 [5]: 1500 nM | Activity (Liver X receptor [6]): Not Active | Activity (Liver X receptor [7]): Active

CC(C)=C[C@@H]1C[C@@H]([C@@H]2CC[C@]3(C)C4=CC[C@H]5C(C)(C)C(=O)CC[C@]5(C)[C@H]4CC[C@@]23C)[C@H](O)O1
Activity [8]: Active | Activity (HepG2 [9]): inactive | Activity (Liver X receptor [10]): Not Active | EC50 [4]: 1600 nM | EC50 [5]: 5300 nM | Activity (Liver X receptor [11]): Not Active | Activity [12]: Active | Activity [13]: Dose-Dependent Effect | Activity [14]: Dose-Dependent Effect | Activity (HEK-293T): Toxic | Activity (Homo sapiens): inactive | Activity [15]: inactive | Activity [16]: inactive | Activity [17]: Active | Activity [18]: Active | Activity [19]: Active | Activity [20]: Active | Activity (Liver X receptor [21]): Dose-Dependent Effect | Activity (Liver X receptor [22]): Dose-Dependent Effect

From ChEMBL document CHEMBL5370566, “Flindissone, a Limonoid Isolated from Trichilia prieuriana, Is an LXR Agonist” (J Nat Prod, 2023)
